Reference: patent publication US8017400B2 (priority 2005, dated 2011)
Where “and” joins values, the source holds several entries; their conditions need not be identical. Identical values can stand only once. Like-named read-outs stand apart in the source and are kept apart here.

How the values were obtained:
[1] = tested on: G95A mutant ALS; experiment: Inhibition of expressed GST fusion G95A mutant ALS activity by herbicides; type: biochemical, rice; conditions: 50% inhibitory concentration against G95A mutant ALS to that against wild-type ALS
Method: (§1) The Escherichia coli transformed with pGEX-2T having a G95A mutant ALS gene prepared in Example 6 and the same transformed with pGEX-2T (see WO02/44385A1) having a wild-type ALS gene were each shake-cultured (preculture) in 2 ml of LB liquid medium containing ampicillin at 27° C. They were each cultured in 250 ml of LB liquid medium containing ampicillin using 1 ml of the preculture solution. After overnight culture, 1 mM IPTG was added and they were further cultured for 3 to 4 hours. Thus, the expression of the GST fusion protein was induced. In addition, microbial bodies were washed with an ALS extraction buffer (potassium phosphate buffer (pH 7.5) containing 30% glycerol and 0.5 mM MgCl2) and then stored at −80° C.
(§2) Preparation and purification of ALS from Escherichia coli were performed by the following method. First, a pellet of the Escherichia coli stored at −80° C. was suspended in an ALS extraction buffer. (2.5 ml of the ALS extraction buffer was added to the pellet obtained from 50 ml of the culture solution.) The suspension was subjected to ultrasonication (Heat Systems-Ultrasonics, Sonicator W-225R, micro chip, output control 8, intervals of approximately 1 second, and twice every 40 seconds), and then centrifuged at 15000×g and 4° C. for 20 minutes, thereby obtaining the supernatant as a crude enzyme solution. Therefore, a crude enzyme solution of the GST fusion G95A mutant ALS protein and a crude enzyme solution of the GST fusion wild-type ALS protein were prepared.
(§3) A reaction solution to be used for the reaction for activity determination was prepared by mixing GST fusion ALS to be subjected to activity determination with a solution comprising 20 mM sodium pyruvate, 0.5 mM thiamine pyrophosphate, 0.5 mM MgCl2, 10 μM flavin adenine dinucleotide, 10 mM valine (added for the inhibition of activity of ALS derived from Escherichia coli), and 20 mM potassium phosphate buffer (pH 7.5). 0.5 ml of the reaction solution was used. The reaction was performed at 37° C. for 30 minutes after addition of GST fusion ALS to be subjected to activity determination. The reaction was stopped by the addition of 0.05 ml of 6 N sulfuric acid. After the completion of the reaction, the reaction solution was subjected to incubation at 37° C. for 60 minutes, so that acetolactic acid contained in the reaction solution was converted into acetoin. Subsequently, to quantify acetoin contained in the reaction solution, 0.05 ml of 0.5% (w/v) creatine and 0.05 ml of 5% (w/v) α-naphthol dissolved in 2.5 N sodium hydroxide were added, followed by 10 minutes of incubation at 37° C. Acetoin was then quantified by color comparison of the absorbance at 525 nm of the reaction solution, thereby evaluating ALS activity. The value at reaction time 0 (hours) was used as a control value. When the herbicide inhibition activity was examined, aqueous solutions of bispyribac-sodium and pyrithiobac-sodium were each prepared at a 100-fold concentration and then added to the reaction solution. In the case of pyriminobac, chlorsulfuron, bensulfuron-methyl, imazaquin, and imazapyr having low water solubility, an acetone solution was prepared for each thereof at a 100-fold concentrations and then added to the reaction solution.
(§4) The inhibition activity of various ALS inhibitors against the thus expressed G95A mutant ALS was examined.

[2] = target: T1, G95A mutant ALS (Oryza sativa subsp. japonica, UniProt Q6K2E8, G95A); experiment: as above; type: biochemical, rice
T1 construct: made in house; host or cells: Escherichia coli (pGEX-2T)
Method: as §1, §2, §3, §4

[3] = target: T2, wild-type ALS (GST fusion wild-type ALS) (Oryza sativa subsp. japonica, UniProt Q6K2E8); experiment: Inhibition of expressed GST fusion wild-type ALS activity by herbicides; type: biochemical, rice
T2 construct: made in house; host or cells: Escherichia coli (pGEX-2T)
Method: as §1, §2, §3
The 50% inhibitory concentration of each herbicide against G95A mutant ALS was compared with the 50% inhibitory concentration of the herbicide against wild-type ALS (GST fusion wild-type ALS), so that the herbicide resistance ratio (RS ratio) of the 50% inhibitory concentration against G95A mutant ALS to that against wild-type ALS was calculated. The RS ratios in the cases of bispyribac-sodium, pyrithiobac-sodium, and pyriminobac were 16,000:1 or more, 9, 100:1 or more, and 13,000:1 or more, respectively. In contrast, the RS ratios in the cases of chlorsulfuron, bensulfuron-methyl, imazaquin, and imazapyr were 0.19:1, 40:1, 0.82:1, and 4.9:1, respectively. […]

[4] = tested on: plants of wild-type Taichung 65; experiment: Bispyribac-sodium resistance test on rooting medium, wild-type control; type: in vivo, rice; conditions: wild-type Taichung 65, 2 weeks after seeding; observed 1 and 2 weeks after transplantation
Method: (§5) The two lines of plants selected by the above method were designated the G95A-1 line and the G95A-2 line. Since they were albino plants, they were cultured on MS medium and then multiplied by division. To test the degree of resistance to bispyribac-sodium, clone plants divided from the G95A-1 line were transplanted on rooting media (Table 3) containing 0 μM, 1 μM, 5 μM, 10 μM, or 20 μM bispyribac-sodium (FIG. 3A: on the left in each Petri dish, observed as white because they were albino). Clone plants of the G95A-2 line (the number of these clone plants is a few) were tested using 5 μM bispyribac-sodium alone. Plants of wild-type Taichung 65 in 2 weeks after seeding were used as members of a control group (FIG. 3, on the right side in each Petri dish). Plant in 1 week (FIG. 3B) after transplantation and plant in 2 weeks (FIG. 3C) after transplantation were observed.

[5] = tested on: clone plants of the G95A-1 line and the G95A-2 line; experiment: Bispyribac-sodium resistance test on rooting medium, G95A lines; type: in vivo, rice; conditions: G95A-1 line at 1, 5, 10, 20 μM, G95A-2 line at 5 μM; observed 1 and 2 weeks after transplantation
Method: as §5

[6] = 50% inhibitory concentration (μM) G95A mutant, G95A mutant ALS (Table 5)
[7] = read-out: inhibition % at 100 μM, Average, G95A mutant ALS, average of determinations
[8] = read-out: inhibition % at 100 μM, G95A mutant ALS, single determinations (First to Third)
[9] = read-out: inhibition activity at 100 μM, G95A mutant ALS
[10] = 50% inhibitory concentration, Average, G95A mutant ALS, average of determinations (Table 4)
[11] = 50% inhibitory concentration, G95A mutant ALS, single determinations (First to Sixth)

T2 sequence (Q6K2E8 44-644): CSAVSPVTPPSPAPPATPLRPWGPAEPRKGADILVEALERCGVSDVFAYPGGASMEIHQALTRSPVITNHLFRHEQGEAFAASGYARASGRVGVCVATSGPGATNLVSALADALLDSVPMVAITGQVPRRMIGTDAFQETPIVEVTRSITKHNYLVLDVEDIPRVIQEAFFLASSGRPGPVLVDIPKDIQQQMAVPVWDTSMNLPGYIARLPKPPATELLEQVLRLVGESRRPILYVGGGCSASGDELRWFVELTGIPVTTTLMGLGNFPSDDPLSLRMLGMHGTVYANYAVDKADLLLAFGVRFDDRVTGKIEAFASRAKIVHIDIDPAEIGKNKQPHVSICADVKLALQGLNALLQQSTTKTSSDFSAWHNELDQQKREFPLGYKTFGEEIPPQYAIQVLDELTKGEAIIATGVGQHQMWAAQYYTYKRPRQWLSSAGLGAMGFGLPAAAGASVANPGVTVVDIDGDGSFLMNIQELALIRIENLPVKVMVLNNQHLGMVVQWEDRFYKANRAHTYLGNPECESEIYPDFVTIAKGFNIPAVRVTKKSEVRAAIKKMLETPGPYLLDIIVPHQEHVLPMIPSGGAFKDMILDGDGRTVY
T1 sequence (Q6K2E8 44-644 G95A): as the sequence (Q6K2E8 44-644) above, with G52A counted along it

Compound | Resistance ratio (RS ratio) [1] | Resistance ratio (RS ratio) ([1]; listed as pyriminobac) | IC50 [2, 6] [µM] | inhibition % at 100 μM ([2]; G95A mutant ALS, single determinations (First to Third), listed as PM) | inhibition at 100 µM [2, 7] [%] | inhibition at 100 µM [2, 8] [%] | inhibition at 100 µM [2, 9] [%] | IC50 [3] [nM] | IC50 [2, 10] [µM] | IC50 [2, 11] | inhibition activity against G95A mutant ALS (in words) ([2]; G95A mutant ALS) | effect on plants on bispyribac-sodium-containing rooting medium [4] | Resistance ratio (RS ratio) ([1]; listed as bispyribac-sodium) | inhibition % at 100 μM ([2]; G95A mutant ALS, single determinations (First to Third), listed as BS) | resistance / rooting on bispyribac-sodium-containing rooting medium [5] | inhibition % at 100 μM ([2]; G95A mutant ALS, single determinations (First to Third), listed as PS)
CON=C(C)c1cccc(Oc2nc(OC)cc(OC)n2)c1C(=O)O (mixture of isomers) [Pyriminobac, pyriminobac] | >13000 | ≥ 13,000 | > 100 | 23.3% and 29.2% | 25.1 | 22.9 | ≤ 50 | 8 | – | – | – | – | – | – | – | –
COC(=O)c1ccccc1CS(=O)(=O)NC(=O)Nc1nc(OC)cc(OC)n1 [Bensulfuron-methyl, bensulfuron-methyl] | 40 | – | 0.28 | – | – | – | – | 7 | 0.278 | 0.268 µM and 0.294 µM and 0.271 µM | exerted inhibition activity | – | – | – | – | –
COc1cc(OC)nc(Oc2cccc(Oc3nc(OC)cc(OC)n3)c2C(=O)[O-])n1.[Na+] [Bispyribac-sodium, bispyribac-sodium] | >16000 | – | > 100 | – | 17.7 | 17.9 | ≤ 50 | 6.3 | – | – | – | all the wild-type plants of the control group withered | ≥ 16,000 | 16.8% and 18.4% | exerted resistance, with new rooting observed | –
COc1nc(C)nc(NC(=O)NS(=O)(=O)c2ccccc2Cl)n1 [Chlorsulfuron, chlorsulfuron] | 0.19 | – | 0.0025 | – | – | – | – | 13 | 0.0025 | 0.0019 µM and 0.0023 µM and 0.003 µM and 0.0027 µM and 0.0028 µM and 0.0021 µM | strong | – | – | – | – | –
CC(C)C1(C)N=C(c2ncccc2C(=O)O)NC1=O (stereo not shown) [Imazapyr, imazapyr] | 4.9 | – | 47 | – | – | – | – | 9600 | 46.8 | 46 µM and 44.6 µM and 49.7 µM | exerted inhibition activity | – | – | – | – | –
CC(C)C1(C)N=C(c2nc3ccccc3cc2C(=O)O)NC1=O (stereo not shown) [Imazaquin, imazaquin] | 0.82 | – | 1.8 | – | – | – | – | 2200 | 1.8 | 1.65 µM and 1.89 µM and 1.85 µM | exerted inhibition activity | – | – | – | – | –
COc1cc(OC)nc(Sc2cccc(Cl)c2C(=O)[O-])n1.[Na+] [Pyrithiobac-sodium, pyrithiobac-sodium] | >9100 | – | > 100 | – | 14.3 | 12.1 | ≤ 50 | 11 | – | – | – | – | – | – | – | 12.8% and 18.1%
